Laboratory results taken from PMC8741970, “Ablation of VLA4 in multiple myeloma cells redirects tumor spread and prolongs survival” (Scientific Reports, 2022).
“Also recorded” adds a separate entry of the source. One block for each molecule: values may come before it.

Columns and labels:
[1] = molecular target: T1, VLA4 on WT 5TGM1-GFP cells (Mus musculus, UniProt P09055+Q00651); assay: Flow cytometry binding to WT 5TGM1-GFP cells; design: species or system murine; conditions: for binding to WT cells (flow cytometry gate): 1.5 × 10^5 WT 5TGM1-GFP cells, no BIO5192; for binding to WT cells after pre-incubation with BIO5192: WT 5TGM1-GFP cells, pre-incubation with an established therapeutic dose of BIO5192
T1 construct: endogenous in cells; host or cells: WT 5TGM1-GFP murine myeloma cells
Method: (§1) The single cells were suspended in phosphate-buffered saline (PBS) with 0.1% bovine serum albumin as buffer. The human and mouse FC receptors were blocked by human BD Fc block and mouse BD Fc block, respectively. The cell suspension was incubated with fluorochrome-conjugated monoclonal antibodies in dark, at room temperature, for 30 min. Cells were washed twice with buffer afterward, and then proceeded analysis on a Beckman Coulter Gallios flow cytometer. The dead cells were excluded by using 7-amino-actinonycin D (7-AAD). The data were analyzed on FlowJo software. The appropriate isotype antibodies were used as controls.

[2] = test system: VLA4 KO 5TGM1-GFP cells; assay: Flow cytometry binding to Itga4 KO 5TGM1-GFP cells; design: species or system murine; conditions: for binding to KO cells (flow cytometry gate): 1.5 × 10^5 Itga4 KO 5TGM1-GFP cells, no BIO5192; for binding to KO cells after pre-incubation with BIO5192: Itga4 KO 5TGM1-GFP cells, pre-incubation with an established therapeutic dose of BIO5192
Method: as §1

[3] = molecular target: activated VLA4 on 5TGM1 (Mus musculus, UniProt P09055+Q00651); conditions: 5TGM1, flow cytometry
Method: as §1

[4] = molecular target: activated VLA4 on H929 (Homo sapiens, UniProt P05556+P13612); conditions: H929, flow cytometry
Method: as §1

[5] = molecular target: activated VLA4 on MM1.S (Homo sapiens, UniProt P05556+P13612); conditions: flow cytometry
Method: as §1

[6] = molecular target: activated VLA4 on OPM2 (Homo sapiens, UniProt P05556+P13612); conditions: OPM2, flow cytometry
Method: as §1

[7] = molecular target: activated VLA4 on RPMI-8226 (Homo sapiens, UniProt P05556+P13612); conditions: RPMI-8226, flow cytometry
Method: as §1

[8] = molecular target: activated VLA4 on U266 (Homo sapiens, UniProt P05556+P13612); conditions: U266, flow cytometry
Method: as §1

[9] = molecular target: activated VLA4 on CD138+CD38+ MM PCs (Homo sapiens, UniProt P05556+P13612); conditions: nineteen de-identified BM samples from myeloma patients (13/19); HBSS with Ca2+, Mg2+, 0.1% BSA
Method: as §1, with “The single cells were suspended in phosphate-buffered saline (PBS) with 0.1% bovine serum albumin as buffer.” left out

[10] = test system: monocytes; assay: Binding studies with MM patient BM samples, monocytes; design: species or system human
Method: (§2) Purified cells were > 97% for CD38 + CD138 + plasma cells.
(§3) The data were analyzed on FlowJo software. The appropriate isotype antibodies were used as controls.

[11] = test system: T-lymphocytes; assay: Binding studies with MM patient BM samples, T-lymphocytes; design: species or system human
Method: as §2, §3

[12] = test system: B-lymphocytes; assay: Binding studies with MM patient BM samples, B-lymphocytes; design: species or system human
Method: as §2, §3

[13] = test system: 5TGM1-GFP tumors in C57Bl/KaLwRij mice; assay: In vivo and ex vivo NIR fluorescence imaging in the 5TGM1/KaLwRij i.v. MM model; design: species or system mouse
Method: All animal studies were conducted according to protocols approved by the Washington University Animal Studies Committee. Mice were anesthetized for all treatments and imaging with 2% v/v isoflurane/100% O2. Female 1–3 month-old C57Bl/6 KaLwRij mice were injected intravenously (i.v.) with 10^6 5TGM1-GFP cells in 100 µL 1 × PBS via the lateral tail vein. Imaging studies were performed 3–4 weeks after tumor implantation. Prior to imaging, hair was removed by gentle clipping and depilatory cream to improve light transmission. Supplemental Fig. S1. […] The images were background subtracted and gated by fluorescence lifetime to minimize autofluorescence and diet-related non-specific fluorescence[65],[66].
Supplementary Fig. 4. Mice were anesthetized for all imaging with 2% v/v isoflurane/100% O2. Female (n = 2)1–3 month old C57Bl/6 KaLwRij mice were injected with 1 × 10^6 5TGM1-GFP WT in 100 µL PBS via the lateral tail-vein. In vivo 3D fluorescence imaging in Supplemental Fig. 3A was performed on IVIS Spectrum CT (PerkinElmer, Waltham, MA) with auto-exposure settings in the GFP wavelength (Ex./Em. 480 nm/520 nm) filter pair.
Supplementary Fig. 5. Mice were anesthetized for all imaging with 2% v/v isoflurane/100% O2. Female 1–3 month old C57Bl/6 KaLwRij mice were injected with 1 × 10^6 5TGM1-GFP WT (n = 11) or KO (n = 12) cells in 100 µL PBS via the lateral tail-vein.
2D analysis and 3D in vivo and ex vivo reconstructions were performed using the Living Image 4.7.1 analysis software. Background fluorescence was subtracted automatically via the “Adaptive Background Subtraction” module within the Living Image 4.7.1 program. Analysis of 2D ex vivo fluorescent images was performed by measuring Total Radiant Efficiency (TRE) (photons/sec/cm^2/sr)/(μW/cm^2) from ROIs drawn around bone and muscle tissue in the GFP and Cy5 images. Tissue to muscle ratio was calculated by dividing TREs of tissue by TREs of muscle tissue of each respective mouse.
(§4) [picture] Supplementary Figure 4. […] In vivo 3D fluorescence imaging was performed on IVIS Spectrum CT (PerkinElmer, Waltham, MA) with auto-exposure settings in the GFP wavelength (Ex./Em. 480nm/520nm) filter pair. […] GFP^+ cells were co-stained with PE-conjugated anti-mouse CD49d and eFluor450-conjugated anti-mouse CD29 antibodies (middle; Thermo Fisher Scientific) to identify VLA4^+ cells.

[14] = test system: VLA4 expressing cells in BM and spleen of 5TGM1-GFP tumor mice; assay: FACS of ex vivo tissue samples after LLP2A-Cy5 injection; format: in vivo, mouse; conditions: after i.v. LLP2A-Cy5
Method: as §3, §4

[15] = molecular target: activated VLA4 on the surface of the 5TGM1-GFP murine myeloma cells (Mus musculus, UniProt P09055+Q00651); assay: Confocal microscopy of cell surface binding and internalization of Cy5-labelled probes; conditions: WT 5TGM1-GFP cells
Method: Blue, green and red colors represent nuclear stain, GFP, and Cy5 signal, respectively in all images (60x; scale bar: 20 µm). […] BIO5192 (100 nM) was used to evaluate non-specific binding.
WT 5TGM1-GFP cells were plated on 35 mm glass bottom MatTek dishes pre-coated with poly-D-lysine (glass no. 1.5; MatTek Corporation, MA) at 10^5 cells/cm^2 and allowed to attach for 1 h at 37 °C. Cells were incubated with the Cy5-labelled probes (1 µM) at 4 °C for 15 min, and at 37 °C for 2.5 h to assess cell surface binding specificity and cellular internalization, respectively. Hoechst 34,580 (10 µg/L, Invitrogen, CA) was added for the last 15 min of incubation to counterstain cell nuclei. Fluorescence confocal microscopy was performed on a Nikon A1Rsi confocal microscope (Nikon Corporation, Tokyo, Japan) with 60X and 100X oil immersion objectives using excitation-emission settings at 405 nm-450/40 nm (Hoechst 34,580), 488 nm-530/20 nm (GFP), and 640–660/20 nm (Cy5).

[16] = ex vivo biodistribution 18 h after i.v. 100 µL of 25 µM LLP2A-Cy5, 5TGM1-GFP WT tumor mice, 3 weeks post inoculation, mean ± SD

T1 sequence (Q00651 34-1039 limits assumed): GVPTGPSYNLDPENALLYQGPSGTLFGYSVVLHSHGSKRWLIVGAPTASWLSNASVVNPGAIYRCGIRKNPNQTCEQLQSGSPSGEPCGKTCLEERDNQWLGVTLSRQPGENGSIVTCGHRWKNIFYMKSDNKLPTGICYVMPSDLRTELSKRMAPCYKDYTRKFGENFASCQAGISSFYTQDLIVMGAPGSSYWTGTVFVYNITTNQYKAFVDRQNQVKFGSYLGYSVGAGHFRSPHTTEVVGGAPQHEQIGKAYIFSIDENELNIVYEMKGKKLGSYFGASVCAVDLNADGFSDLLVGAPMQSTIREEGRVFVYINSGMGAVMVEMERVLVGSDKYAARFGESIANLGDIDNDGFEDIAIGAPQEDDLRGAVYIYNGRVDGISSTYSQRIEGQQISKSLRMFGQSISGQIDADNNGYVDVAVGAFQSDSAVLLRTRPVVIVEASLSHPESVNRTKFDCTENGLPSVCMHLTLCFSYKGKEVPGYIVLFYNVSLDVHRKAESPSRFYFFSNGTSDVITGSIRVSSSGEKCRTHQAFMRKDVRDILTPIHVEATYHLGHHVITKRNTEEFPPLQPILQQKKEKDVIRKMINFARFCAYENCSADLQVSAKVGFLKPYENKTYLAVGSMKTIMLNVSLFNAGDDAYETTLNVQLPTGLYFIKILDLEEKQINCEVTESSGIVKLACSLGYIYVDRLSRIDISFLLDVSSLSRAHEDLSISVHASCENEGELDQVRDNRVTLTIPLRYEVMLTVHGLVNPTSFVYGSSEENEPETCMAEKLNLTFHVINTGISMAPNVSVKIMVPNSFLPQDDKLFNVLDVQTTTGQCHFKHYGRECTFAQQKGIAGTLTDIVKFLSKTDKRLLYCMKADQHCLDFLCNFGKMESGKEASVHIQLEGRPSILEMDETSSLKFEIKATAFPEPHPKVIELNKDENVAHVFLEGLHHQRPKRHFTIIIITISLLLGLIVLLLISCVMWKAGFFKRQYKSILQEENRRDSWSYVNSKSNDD
T1 sequence (P09055 21-798): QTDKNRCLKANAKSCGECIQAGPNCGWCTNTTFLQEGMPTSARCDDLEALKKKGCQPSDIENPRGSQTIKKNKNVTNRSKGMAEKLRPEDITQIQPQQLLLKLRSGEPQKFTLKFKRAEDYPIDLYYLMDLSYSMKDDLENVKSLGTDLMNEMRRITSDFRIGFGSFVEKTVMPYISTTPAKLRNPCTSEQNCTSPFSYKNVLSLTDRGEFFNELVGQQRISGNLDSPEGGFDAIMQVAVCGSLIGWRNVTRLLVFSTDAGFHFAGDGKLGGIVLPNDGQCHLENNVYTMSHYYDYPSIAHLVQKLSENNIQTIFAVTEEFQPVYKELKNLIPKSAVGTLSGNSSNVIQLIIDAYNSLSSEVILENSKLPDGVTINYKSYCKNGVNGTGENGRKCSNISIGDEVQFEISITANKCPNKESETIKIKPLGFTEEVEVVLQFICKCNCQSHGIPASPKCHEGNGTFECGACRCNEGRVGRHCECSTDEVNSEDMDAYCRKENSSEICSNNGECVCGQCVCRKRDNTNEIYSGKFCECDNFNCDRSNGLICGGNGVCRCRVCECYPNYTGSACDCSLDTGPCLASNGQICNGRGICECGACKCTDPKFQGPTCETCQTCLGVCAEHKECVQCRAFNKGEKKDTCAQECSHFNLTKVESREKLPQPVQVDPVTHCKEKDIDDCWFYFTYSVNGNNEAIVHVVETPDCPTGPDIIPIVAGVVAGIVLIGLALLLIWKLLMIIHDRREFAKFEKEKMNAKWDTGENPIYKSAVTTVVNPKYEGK
Chain of activated VLA4 on the surface of the 5TGM1-GFP murine myeloma cells (Q00651 34-1039 limits assumed): as the sequence (Q00651 34-1039 limits assumed) above
Chain of activated VLA4 on the surface of the 5TGM1-GFP murine myeloma cells (P09055 21-798): as the sequence (P09055 21-798) above
Chain of activated VLA4 on 5TGM1 (Q00651 34-1039 limits assumed): as the sequence (Q00651 34-1039 limits assumed) above
Chain of activated VLA4 on 5TGM1 (P09055 21-798): as the sequence (P09055 21-798) above
Chain of activated VLA4 on MM1.S (P13612 34-1032): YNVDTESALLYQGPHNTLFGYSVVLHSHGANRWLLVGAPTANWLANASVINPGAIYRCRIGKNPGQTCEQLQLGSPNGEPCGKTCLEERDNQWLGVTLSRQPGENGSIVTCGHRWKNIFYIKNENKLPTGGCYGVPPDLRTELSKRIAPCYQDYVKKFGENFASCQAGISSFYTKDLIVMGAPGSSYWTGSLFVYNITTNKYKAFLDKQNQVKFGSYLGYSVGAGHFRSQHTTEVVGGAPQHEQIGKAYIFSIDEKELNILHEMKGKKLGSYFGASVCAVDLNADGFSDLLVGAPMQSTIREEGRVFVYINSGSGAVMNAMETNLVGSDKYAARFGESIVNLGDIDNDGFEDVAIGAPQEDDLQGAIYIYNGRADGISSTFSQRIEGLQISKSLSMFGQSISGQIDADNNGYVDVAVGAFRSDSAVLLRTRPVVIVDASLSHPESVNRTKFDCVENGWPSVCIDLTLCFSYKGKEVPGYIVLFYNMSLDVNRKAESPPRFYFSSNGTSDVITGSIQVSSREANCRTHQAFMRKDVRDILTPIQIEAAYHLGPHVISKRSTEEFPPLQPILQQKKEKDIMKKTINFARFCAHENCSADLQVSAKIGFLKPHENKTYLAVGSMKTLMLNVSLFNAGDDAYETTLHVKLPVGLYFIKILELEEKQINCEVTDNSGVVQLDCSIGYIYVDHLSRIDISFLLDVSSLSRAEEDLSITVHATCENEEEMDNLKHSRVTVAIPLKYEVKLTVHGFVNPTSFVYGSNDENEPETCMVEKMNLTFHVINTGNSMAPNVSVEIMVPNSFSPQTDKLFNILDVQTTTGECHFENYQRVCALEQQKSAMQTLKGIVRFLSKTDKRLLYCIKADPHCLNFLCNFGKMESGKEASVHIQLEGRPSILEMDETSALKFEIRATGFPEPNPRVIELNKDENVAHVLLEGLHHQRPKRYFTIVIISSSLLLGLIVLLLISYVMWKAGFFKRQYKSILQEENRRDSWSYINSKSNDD
Chain of activated VLA4 on MM1.S (P05556 21-798): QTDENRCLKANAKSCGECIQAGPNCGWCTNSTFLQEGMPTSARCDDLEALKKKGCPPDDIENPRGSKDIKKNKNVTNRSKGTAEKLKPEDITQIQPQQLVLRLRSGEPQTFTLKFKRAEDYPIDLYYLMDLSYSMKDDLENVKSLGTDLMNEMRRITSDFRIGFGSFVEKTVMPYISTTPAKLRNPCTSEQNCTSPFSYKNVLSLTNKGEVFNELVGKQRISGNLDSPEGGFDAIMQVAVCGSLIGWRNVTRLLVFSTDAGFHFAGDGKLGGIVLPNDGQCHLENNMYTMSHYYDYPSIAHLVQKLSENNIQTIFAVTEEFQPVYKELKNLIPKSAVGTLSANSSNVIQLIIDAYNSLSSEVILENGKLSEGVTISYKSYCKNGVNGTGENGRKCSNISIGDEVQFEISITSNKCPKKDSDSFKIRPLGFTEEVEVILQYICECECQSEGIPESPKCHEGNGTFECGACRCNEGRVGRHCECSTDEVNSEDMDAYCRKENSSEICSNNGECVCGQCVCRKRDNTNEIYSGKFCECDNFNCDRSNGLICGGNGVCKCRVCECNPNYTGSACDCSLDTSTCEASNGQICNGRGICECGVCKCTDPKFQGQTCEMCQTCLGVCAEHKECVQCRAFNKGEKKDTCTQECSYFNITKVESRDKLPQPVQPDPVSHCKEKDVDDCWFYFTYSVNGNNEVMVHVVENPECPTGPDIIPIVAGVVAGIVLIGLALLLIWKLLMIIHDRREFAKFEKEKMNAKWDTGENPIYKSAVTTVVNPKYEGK
Chain of activated VLA4 on H929 (P13612 34-1032): as the sequence (P13612 34-1032) above
Chain of activated VLA4 on H929 (P05556 21-798): as the sequence (P05556 21-798) above
Chain of activated VLA4 on RPMI-8226 (P13612 34-1032): as the sequence (P13612 34-1032) above
Chain of activated VLA4 on RPMI-8226 (P05556 21-798): as the sequence (P05556 21-798) above
Chain of activated VLA4 on U266 (P13612 34-1032): as the sequence (P13612 34-1032) above
Chain of activated VLA4 on U266 (P05556 21-798): as the sequence (P05556 21-798) above
Chain of activated VLA4 on OPM2 (P13612 34-1032): as the sequence (P13612 34-1032) above
Chain of activated VLA4 on OPM2 (P05556 21-798): as the sequence (P05556 21-798) above
Chain of activated VLA4 on CD138+CD38+ MM PCs (P13612 34-1032): as the sequence (P13612 34-1032) above
Chain of activated VLA4 on CD138+CD38+ MM PCs (P05556 21-798): as the sequence (P05556 21-798) above

Molecule: Cc1ccccc1NC(=O)Nc1ccc(CC(=O)N[C@@H](CCCCNC(=O)/C=C/c2cccnc2)C(=O)N[C@@H](CCCC(=O)O)C(=O)NC2(C(N)=O)CCCCC2)cc1 [LLP2A-Cy5]
binding to WT cells (flow cytometry gate) [1]: 100%
binding to WT cells after pre-incubation with BIO5192 [1]: 0.95%
binding to KO cells (flow cytometry gate) [2]: 0.6%
binding to KO cells after pre-incubation with BIO5192 [2]: 0.52%
% LLP2A-Cy5+ [3]: 100%
LLP2A-Cy5+ median fluorescence intensity (MFI) [3]: 23.4
% LLP2A-Cy5+ [4]: 63.3%
LLP2A-Cy5+ median fluorescence intensity (MFI) [4]: 3.4
% LLP2A-Cy5+ [5]: 22.4%
LLP2A-Cy5+ median fluorescence intensity (MFI) [5]: 2.1
% LLP2A-Cy5+ [6]: 80.1%
LLP2A-Cy5+ median fluorescence intensity (MFI) [6]: 4.6
% LLP2A-Cy5+ [7]: 59.5%
LLP2A-Cy5+ median fluorescence intensity (MFI) [7]: 3.2
% LLP2A-Cy5+ [8]: 100%
LLP2A-Cy5+ median fluorescence intensity (MFI) [8]: 16.1
share of patient samples in which LLP2A-Cy5 stained over 20% of CD138+CD38+ MM PCs [9]: 68%
percentage of LLP2A-Cy5+ cells [10]: 58.2%
relative median fluorescence (RMFI) [10]: 3.0
percentage of LLP2A-Cy5+ cells [11]: 36.3%
relative median fluorescence (RMFI) [11]: 2.2
percentage of LLP2A-Cy5+ cells [12]: 23.3%
relative median fluorescence (RMFI) [12]: 1.7
uptake in KO tumor foci compared with WT ([13]; KaLwRij mice with Itga4 KO versus WT 5TGM1-GFP tumors, ex vivo fluorescence imaging 18 h after LLP2A-Cy5): significantly reduced uptake
femur-muscle fluorescence ratio [13, 16]: 7.0 ± 2.5
spleen-muscle fluorescence ratio [13, 16]: 2.6 ± 0.7
time post-injection at which tumor contrast peaked ([13]; noninvasive fluorescence imaging before, 4 and 18 h after i.v. 100 µL of 25 µM LLP2A-Cy5): ~ 18 h
% LLP2A-Cy5+ cells in the BM ([14]; ex vivo BM, GFP+ tumor cells (97.5% VLA4+)): 84.7%
% LLP2A-Cy5+ cells in the hematopoietic BM niche ([14]; hematopoietic BM niche (63.6% VLA4+)): 53.2%
cellular localization after extended incubation ([15]; 1 µM, 37 °C, 2.5 h, confocal 3D z-stack): dominant cell membrane binding; also recorded: strong cell surface binding with minimal internalization
fold reduction of cell surface binding on blocking with excess unlabeled peptide ([15]; LLP2A-Cy5 1 µM co-incubated with 100-fold excess LLP2A-PEG4 (100 µM), 15 min, 4 °C, confocal microscopy): 3.07 ± 0.3 fold

binding to WT cells (flow cytometry gate) [1]: 97.7%
binding to WT cells after pre-incubation with BIO5192 [1]: 3.33%
B1: sVCAM-1: soluble vascular cell adhesion molecule-1, natural ligand of VLA4 (protein, UniProt P19320 25-698, looked up)
extracellular domain: FKIETTPESRYLAQIGDSVSLTCSTTGCESPFFSWRTQIDSPLNGKVTNEGTTSTLTMNPVSFGNEHSYLCTATCESRKLEKGIQVEIYSFPKDPEIHLSGPLEAGKPITVKCSVADVYPFDRLEIDLLKGDHLMKSQEFLEDADRKSLETKSLEVTFTPVIEDIGKVLVCRAKLHIDEMDSVPTVRQAVKELQVYISPKNTVISVNPSTKLQEGGSVTMTCSSEGLPAPEIFWSKKLDNGNLQHLSGNATLTLIAMRMEDSGIYVCEGVNLIGKNRKEVELIVQEKPFTVEISPGPRIAAQIGDSVMLTCSVMGCESPSFSWRTQIDSPLSGKVRSEGTNSTLTLSPVSFENEHSYLCTVTCGHKKLEKGIQVELYSFPRDPEIEMSGGLVNGSSVTVSCKVPSVYPLDRLEIELLKGETILENIEFLEDTDMKSLENKSLEMTFIPTIEDTGKALVCQAKLHIDDMEFEPKQRQSTQTLYVNVAPRDTTVLVSPSSILEEGSSVNMTCLSQGFPAPKILWSRQLPNGELQPLSENATLTLISTKMEDSGVYLCEGINQAGRSRKEVELIIQVTPKDIKLTAFPSESVKEGDTVIISCTCGNVPETWIILKKKAETGDTVLKSIDGAYTIRKAQLKDAGVYECESKNKVGSQLRSLTLDVQGRENNKDYFSPE
modifications: extracellular domain
notes: soluble vascular cell adhesion molecule-1, natural ligand of VLA4
binding to KO cells (flow cytometry gate) [2]: 1.65 ± 0.07%
binding to KO cells after pre-incubation with BIO5192 [2]: 2.51%
